According to ChEMBL document CHEMBL4825742, “Novel Histone Deacetylase 6 Inhibitors for Treating Alzheimer's Disease and Cancer” (ACS Med Chem Lett, 2021):

molecular target: T1, Protein deacetylase HDAC6 (Homo sapiens, UniProt Q9UBN7); assay: Inhibition of human full length HDAC6 expressed in baculovirus expression system using FAM-RHKK(Ac)-NH2 as substrate incubated for 5 hrs by […] endpoint assay
T1 sequence (Q9UBN7 whole entry): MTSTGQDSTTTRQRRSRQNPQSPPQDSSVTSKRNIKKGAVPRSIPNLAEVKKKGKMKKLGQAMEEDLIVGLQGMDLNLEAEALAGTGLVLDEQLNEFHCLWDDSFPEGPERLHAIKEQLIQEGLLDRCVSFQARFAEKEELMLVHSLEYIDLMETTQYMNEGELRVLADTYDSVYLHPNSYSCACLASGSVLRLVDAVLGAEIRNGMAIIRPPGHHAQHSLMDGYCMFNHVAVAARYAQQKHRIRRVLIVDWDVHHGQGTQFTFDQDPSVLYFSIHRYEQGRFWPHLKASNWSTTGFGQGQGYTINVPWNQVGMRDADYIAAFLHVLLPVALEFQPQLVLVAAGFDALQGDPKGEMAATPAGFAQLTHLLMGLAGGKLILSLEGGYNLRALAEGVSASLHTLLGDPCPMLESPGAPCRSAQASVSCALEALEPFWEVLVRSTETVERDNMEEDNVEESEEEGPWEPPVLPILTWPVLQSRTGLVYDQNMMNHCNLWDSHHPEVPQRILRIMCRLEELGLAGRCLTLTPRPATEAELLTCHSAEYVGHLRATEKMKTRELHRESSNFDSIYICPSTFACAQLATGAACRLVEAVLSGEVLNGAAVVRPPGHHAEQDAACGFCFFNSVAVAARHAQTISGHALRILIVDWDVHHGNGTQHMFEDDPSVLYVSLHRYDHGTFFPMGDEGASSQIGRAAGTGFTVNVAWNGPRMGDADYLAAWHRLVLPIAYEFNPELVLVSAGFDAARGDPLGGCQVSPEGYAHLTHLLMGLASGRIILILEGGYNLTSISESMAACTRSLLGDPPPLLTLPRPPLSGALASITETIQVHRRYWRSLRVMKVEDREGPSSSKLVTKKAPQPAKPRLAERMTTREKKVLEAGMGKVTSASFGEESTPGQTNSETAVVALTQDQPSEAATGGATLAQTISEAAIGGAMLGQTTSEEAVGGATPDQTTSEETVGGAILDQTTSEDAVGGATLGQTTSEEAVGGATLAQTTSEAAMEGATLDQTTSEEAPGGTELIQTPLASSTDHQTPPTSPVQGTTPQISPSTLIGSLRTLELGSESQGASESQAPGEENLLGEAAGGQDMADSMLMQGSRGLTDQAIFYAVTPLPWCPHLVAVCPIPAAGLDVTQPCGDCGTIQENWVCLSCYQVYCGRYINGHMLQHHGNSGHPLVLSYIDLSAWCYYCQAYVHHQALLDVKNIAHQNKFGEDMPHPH

IC50, 1 nM:
CN1Cc2cc(C(=O)NO)ccc2CN1Cc1ccccc1
O=C(NO)c1cc(F)c2c(c1)CCN(C1CCC1)C2
CN1CC2(CCCCC2)CC[C@H]1Cc1cc(F)cc(C(=O)NO)c1
O=C(NO)c1ccc(CN2CC3(CCOC3)C2)c(F)c1
Cn1c2c(c3ccccc31)CCN(Cc1ccc(C(=O)NO)cc1F)C2
O=C(NO)c1cc(F)c2c(c1)CCn1cccc1-2
